Test results reported in paper PMC8392292 (Biomedicines, 2021).
Counter-ions that a name gives are not always drawn. Like-named read-outs stand apart in the source and are kept apart here.

How the values were obtained:
SARS-CoV-2 RdRp = SARS-CoV-2 RdRp (Severe acute respiratory syndrome coronavirus 2, UniProt P0DTD1); experiment: cell-based; format: cell-based; conditions: for Effect on SARS-CoV-2 RdRp activity: without nsp7 and nsp8; for inhibition at 100 µM: read-out: Inhibition % of RdRp Activity at Max. Dose; for FLuc activity (internal control): compound at the indicated concentrations
[1] = test system: SARS-CoV-2 RdRp with nsp7 and nsp8; format: cell-based; conditions: nsp7 + nsp8 or nsp8-IRES-nsp7 plasmids co-transfected, HEK293T
SARS-CoV-2 = conditions: cited from earlier work
[2] = […], mean ± standard error of the mean, read-out: IC50 of SARS-CoV-2 RdRp activity
[3] = representative experiment, non-linear regression graph, HEK293T, 15 h, read-out: IC50 of SARS-CoV-2 RdRp activity in the figure
[4] = IC50 of SARS-CoV-2 RdRp activity
[5] = HEK-293T, max. dose 100 μM, HEK293T, 15 h

Row | SMILES | IC50 (SARS-CoV-2 RdRp; [2]) [µM] | IC50 (SARS-CoV-2 RdRp; [3]) [µM] | inhibition at 100 µM (SARS-CoV-2 RdRp; [5]) [%] | other results
1 | CC(C)(C)C(=O)OCOP(=O)(COCCn1cnc2c(N)ncnc21)OCOC(=O)C(C)(C)C [Adefovir Dipivoxil, adefovir dipivoxil] | 3.78 ± 0.866 | 3.92 |  | 
2 | COc1ccc2cc1Oc1ccc(cc1)C[C@H]1c3c(cc4c(c3Oc3cc5c(cc3OC)CCN(C)[C@@H]5C2)OCO4)CCN1C [Cepharanthine, cepharanthine] |  |  |  | inhibition at 10 µM (SARS-CoV-2 RdRp; HEK-293T, max. dose 10 μM, HEK293T, 15 h): 5.84%; IC50 (SARS-CoV-2 RdRp; [4]): > 10 µM; Effect on SARS-CoV-2 RdRp activity (SARS-CoV-2 RdRp; HEK293T): did not affect; Effect on SARS-CoV-2 RdRp activity (SARS-CoV-2 RdRp; HEK293T, listed as cepharanthine): did not display any inhibitory effect; Effect on SARS-CoV-2 RdRp activity with nsp7 and nsp8 [1]: did not affect; Effect on SARS-CoV-2 RdRp activity with nsp7 and nsp8 ([1]; listed as cepharanthine): did not display any inhibitory effect
3 | Nc1nc(=O)n([C@@H]2CS[C@H](CO)O2)cc1F [Emtricitabine, emtricitabine] |  |  |  | inhibition at 100 µM (SARS-CoV-2 RdRp; HEK-293T): 88.2%; IC50 (SARS-CoV-2 RdRp; [4]): 15.4 ± 3.6 µM; IC50 (SARS-CoV-2 RdRp; IC50 of SARS-CoV-2 RdRp activity in the figure): 13.8 µM
4 | C=C1[C@H](CO)[C@@H](O)C[C@@H]1n1cnc2c(=O)[nH]c(N)nc21 [Entecavir Hydrate, entecavir hydrate] |  |  | 83.1 | 
5 | Cl.O[C@H]1[C@H]2c3cc4c(cc3CN3CCC(=C[C@@H]1O)[C@H]23)OCO4 [Lycorine, lycorine hydrochloride] | 1.47 ± 0.033 | 1.34 |  | IC50 (SARS-CoV-2): 0.878 ± 0.022 µM; FLuc activity (internal control) (SARS-CoV-2 RdRp; HEK293T): remained unchanged
6 | N=C(N)/N=C(\N)N1CCOCC1 [Moroxydine, moroxydine HCl] | 48.9 ± 14.4 | 37.1 | 76.5 | 
7 | CCC(CC)COC(=O)[C@H](C)N[P@](=O)(OC[C@H]1O[C@@](C#N)(c2ccc3c(N)ncnn23)[C@H](O)[C@@H]1O)Oc1ccccc1 [Remdesivir] |  |  |  | FLuc activity (internal control) (SARS-CoV-2 RdRp; HEK293T): maintained; inhibition at 6.7 µM (SARS-CoV-2 RdRp; HEK-293T, max. dose 6.7 μM, HEK293T, 15 h): 71%
8 | CO[C@H]1/C=C/O[C@@]2(C)Oc3c(C)c(O)c4c(O)c(c(/C=N/N5CCN(C)CC5)c(O)c4c3C2=O)NC(=O)/C(C)=C\C=C\[C@H](C)[C@H](O)[C@@H](C)[C@@H](O)[C@@H](C)[C@H](OC(C)=O)[C@@H]1C [Rifampin, rifampin] | 49.4 ± 4.02 | 30.3 |  | 
9 | Cc1cn([C@@H]2C[C@@H](O)[C@H](CO)O2)c(=O)[nH]c1=O [Telbivudine, telbivudine] | 45.9 ± 3.86 | 39.6 | 76.9 | 
